Measurements published in patent publication US11291719B2, “Methods and compositions for modulating Akt3” (Augusta University Research Institute, Inc., priority 2016, dated 2022).

Columns and labels:
Akt3 pS472 = target: T1, Akt3 pS472 (Homo sapiens, UniProt Q9Y243); experiment: Akt3 phosphorylation in A2780 cells; assay type: cell-based; settings: human ovarian carcinoma cells (A2780)
T1 construct: expression of Akt1 pS473, Akt2 pS474, Akt3 pS472, and Akt pan 5473,474,472 in A2780 cells; endogenous in cells; host or cells: A2780 human ovarian carcinoma cells
T1 sequence (Q9Y243 whole entry): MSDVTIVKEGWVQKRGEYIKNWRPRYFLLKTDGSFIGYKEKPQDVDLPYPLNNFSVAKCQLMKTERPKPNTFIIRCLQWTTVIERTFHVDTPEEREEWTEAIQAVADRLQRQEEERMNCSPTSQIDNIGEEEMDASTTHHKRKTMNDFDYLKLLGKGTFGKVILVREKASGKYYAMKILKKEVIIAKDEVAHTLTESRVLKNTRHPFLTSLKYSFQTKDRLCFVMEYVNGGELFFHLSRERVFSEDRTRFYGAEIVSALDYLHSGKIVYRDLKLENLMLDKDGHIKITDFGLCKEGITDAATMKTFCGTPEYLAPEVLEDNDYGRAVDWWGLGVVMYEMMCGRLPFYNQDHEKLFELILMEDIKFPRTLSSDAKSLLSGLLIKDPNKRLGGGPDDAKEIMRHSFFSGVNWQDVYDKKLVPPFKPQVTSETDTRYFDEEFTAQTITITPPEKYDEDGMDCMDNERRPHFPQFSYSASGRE
Excerpt: FIG. 10 is a bar graph showing the effect of mJJ64A on the expression of Akt1 pS473, Akt2 pS474, Akt3 pS472, and Akt pan 5473,474,472 in A2780 cells compared to control. The Y axis represents integrated density value.

human iTregs = experiment: Induction and viability of human iTregs; assay type: cell-based
Excerpt: FIG. 11A is a bar graph showing the percent of live human iTregs in cells treated with various concentrations of mJJ64A. The X-axis represents treatment group and the Y-axis represents percent of live cells. FIG. 11B is a bar graph showing the percent of FoxP3^+CD4^+ cells in human iTregs treated with various concentrations of mJJ64A. The X-axis represents treatment group and the Y-axis represents percent of FoxP3^+CD4^+ cells. FIG. 11C is a bar graph showing the percent of TGFβ^+ expressing cells in human iTregs treated with various concentrations of mJJ64A. The X-axis represents treatment group and the Y-axis represents percent of TGFβ^+ expressing cells.

FoxP3 = experiment: Western blot of FoxP3 in Tconv cells during iTreg induction; assay type: cell-based; settings: TGF-β induced
Excerpt: (§1) FIG. 12 is a western blot showing the expression of FoxP3, pAkt3, Akt3, pAkt1, and Akt1 in activated Tconv cells induced with TGF-β and treated with various concentrations of mJJ64A.

Akt3 = target: T2, Akt3 (Homo sapiens, UniProt Q9Y243); experiment: Western blot of Akt3 in Tconv cells during iTreg induction; assay type: cell-based; settings: TGF-β induced
T2 construct: endogenous in cells
T2 sequence (Q9Y243 whole entry): as above
Excerpt: as §1

[1] = tested on: non-Treg CD4 and CD8 T cells; experiment: Proliferation of non-Treg CD4 and CD8 T cells; assay type: cell-based; settings: data not shown
mouse iTreg cells = experiment: Suppressive function of mouse iTregs in vitro; assay type: cell-based; settings: iTreg to Tconv ratios 0:1 to 2:1
Excerpt: FIGS. 15A-15J is a set of histograms showing the suppressive function of mouse iTregs in untreated and mJJ64A treated iTregs. The ratio of iTreg to Tconv cells was 0:1, 0.5:1, 1:1, and 2:1.

mouse nTregs cells = experiment: Suppressive function of mouse nTregs in vitro; assay type: cell-based; settings: nTreg to Tconv ratios 0:1 to 3:1
Excerpt: FIGS. 16A-16L is a set of histograms showing the suppressive function of untreated and mJJ64A treated nTregs. The ratio of nTreg to Tconv cells is 0:1, 0.5:1, 1:1, 2:1, and 3:1.

IL-10 = IL-10 production by nTregs; assay type: cell-based; settings: percent IL-10+ FoxP3+ cells
Excerpt: FIG. 17 is a bar graph representing the percent of IL-10^+ FoxP3^+ cells in nTregs treated with various concentrations of mJJ64A.

TC-1 tumor = TC-1 tumor growth under mJJ64A; assay type: in vivo, mouse; settings: compared to untreated controls
Excerpt: FIG. 18A is an illustration showing the experimental method and treatment schematic for TC-1 tumor experiments. FIG. 18B is a line graph showing tumor volume (cm^3) over time (days) for untreated (▴) and mJJ64A treated (♦) TC1 tumor bearing mice.

[2] = tested on: Tregs, CD8+ and FoxP3NEG CD4 T cells; experiment: T cell populations in tumors and spleens of TC-1 mice; assay type: in vivo, mouse
Excerpt: FIG. 19A is a bar graph representing the number of CD8^+ cells per 10^6 live cells in tumors from untreated and mJJ64A treated mice. FIG. 19B is a bar graph representing the number of CD4^+ cells per 10^6 live cells in tumors from untreated and mJJ64A treated mice. FIG. 19C is a bar graph representing the number of FoxP3^+ cells per 10^6 CD4^+ cells in tumors from untreated and mJJ64A treated mice. FIG. 19D is a bar graph representing the number of CD8^+, FoxP3^NEG CD4^+, and Treg cells per 10^6 live cells in the spleen of untreated or mJJ64A treated tumor-bearing mice. FIG. 19E is a bar graph representing the number of CD8^+, FoxP3^NEG CD4^+, and Treg cells per 10^6 live cells in the spleen of untreated or mJJ64A treated tumor-free mice.

[3] = tested on: experimental autoimmune encephalomyelitis (EAE); experiment: Experimental autoimmune encephalomyelitis (EAE) model; assay type: in vivo, mouse
Excerpt: FIG. 24A is a schematic illustration of induction of experimental autoimmune encephalomyelitis (EAE) model. FIG. 24B is a chart showing the grading criterion for scoring severity of EAE. FIG. 24C is a line graph showing EAE score over time (days post EAE induction) for control (●), iTreg (blue circle), and mJJ64A-10 (▾) treated mice. The X-axis represents time (days) and the Y-axis represents EAE score. FIG. 24D is a line graph showing percent survival over time (days) for untreated (•), iTreg treated (●), and mJJ64A-10 treated (▾) mice. The X-axis represents time (days) and the Y-axis represents percent survival. FIG. 24E is a line graph representing EAE score over time (days post EAE induction) for control (●), iTreg (♦), mJJ64A-3 (blue circle), mJJ64A-6 (▾), and mJJ64A-10 (▴) treated EAE mice. The X-axis represents time (days post EAE induction) and the Y-axis represents EAE score. FIG. 24F is a line graph representing percent survival over time (days) for untreated (•), iTreg (blue circle), mJJ64A-3 (▾), mJJ64A-6 (▴), and mJJ64A-10 (♦) treated EAE mice. The X-axis represents time (days) and the Y-axis represents percent survival.

Tregs = experiment: Percent of Tregs in EAE mice; assay type: in vivo, mouse; settings: compared to untreated
Excerpt: FIGS. 25A-251 are bar graphs showing the percent of FoxP3^+ cells per CD4^+ T cells, FoxP3^− cells per CD4^+ T cells, and ROR^+ cells per CD4^+ T cells in the spleen (FIG. 25A-25C), blood (FIG. 25D-25F), and brain (FIG. 25G-251) of UT, iTreg, mJJ64A-3, mJJ64A-6 and mJJ64A-10 treated EAE mice. The X-axis represents treatment group and the Y-axis represents number of FoxP3^+ cells, FoxP3^−, or ROR^+ cells per CD4^+ cells.

SMILES: N#Cc1ccc2nccc(Nc3ccc(C(=O)Nc4ccc(Nc5ccncc5)cc4)cc3)c2c1 [Compound 2]
- phosphorylation of Akt3 (Akt3 pS472): significantly increases
- induction of human iTregs (human iTregs; percent FoxP3+CD4+ and TGFβ+ cells): induced
- cell viability of human iTregs (human iTregs; percent of live cells): did not affect
- expression of FoxP3 in Tconv cells during iTreg induction (FoxP3): increased
- expression of Akt3 in Tconv cells during iTreg induction (Akt3): increased
- proliferation of non-Treg CD4 and CD8 T cells [1]: not
- suppressive function of mouse iTreg cells in vitro (mouse iTreg cells): increased
- suppressive function of mouse nTregs cells in vitro (mouse nTregs cells): increased
- IL-10 production by nTregs (IL-10): increased
- TC-1 tumor growth (TC-1 tumor): significantly increased
- number of Tregs in the tumors and spleens ([2]; compared to untreated controls): increased
- tumor-infiltration of CD8+ and FoxP3NEG CD4 T cells ([2]; mouse, in vivo): not affected
- disease progression in EAE model ([3]; EAE score): reduced
- survival rate in EAE model ([3]; mouse, in vivo): increased
- percent of Tregs in the spleen, blood, and brain (Tregs): increased
